Test results taken from US20050192217A1, “Utilization of lipopeptides or lipoproteins in wound treatment and infection prophylaxis” (priority 1998, published 2005).
Several values for one entry are separate records, joined by “and”; a condition that tells them apart may be missing. Identical values can stand only once. Marks after values point to notes of the source that are not given here. Ends that are not written are not given here. * marks the point of attachment. X1 = 2,3‑bispalmitoyloxy‑(2S)‑propyl, CCCCCCCCCCCCCCCC(=O)OC[C@@H](C*)OC(=O)CCCCCCCCCCCCCCC; Propyl(2R-PamO,3-PamO) = CCCCCCCCCCCCCCCC(=O)OC[C@H](C*)OC(=O)CCCCCCCCCCCCCCC

Columns and labels:
abdominal sepsis = assay: Colon ascendens stent peritonitis model, survival after pretreatment; assay type: in vivo, C57BL/6 mice; settings: 2 μg i.p. two days before the surgical intervention
Description: “Colon ascendens stent peritonitis” is a new model for abdominal sepsis, which may follow surgical intervention [Zantl et al., Infekt. Immun., 66:2300-2309 (1998)]. The following experiments were carried out in order to evaluate the ability of MALP-2 to increase the survival rate in this model. Groups of 12 to 18 C57BL/6 mice were injected intraperitoneally with 2 μg of S-MALP-2 in 200 μL of physiological sodium chloride solution or with the same volume of physiological sodium chloride solution either 2 or 4 days before surgical intervention. The surgical intervention was carried out under ether anesthesia. The abdomen was disinfected with 70% ethanol and then opened by section in the middle line (1 cm). A venous catheter (16 gauge) was inserted into the lumen of the […] colon and secured with two stitches using Ethilon thread (7/0). Then the inner needle of the stent was removed, the catheter was shortened to a length of a few millimeters and a small drop of feces was pressed out from the catheter. The peritoneal cavity was rinsed with 0.5 Ml of sodium chloride solution before closing the abdomen. Among the mice with the control, sodium chloride solution (18 per group), none lived longer than 90 h. […]

wounds [1] = assay: Wound-healing experiment; assay type: in vivo, (diabetic) C57BLKS/J-m+/+-Lepr^db mice; settings: 5 μg in 100 μL into the wound each day up to day 4, diabetic mice
Description: A wound-healing experiment was carried out as follows. On day 1, (diabetic) C57BLKS/J-m+/+-Lepr^db mice were shaved on the back. On day 0, the animals were anesthetized with ether and the backs were disinfected with Braunoderm. After that, circular regions (1.3 cm diameter) were cut from the skin of the back of each mouse. The edges of the wound were treated with benzoin tincture; then 100 μL of the MALP-2 preparation or of the vehicles were introduced into each wound (10 mice for each treatment group). The wounds were covered with transparent patches of Tegaderm. Each day, up to day 4, 100 μL of the preparation (content 5 μg of MALP-2) or vehicle preparation was injected into the wound bed through the Tegaderm patches or placed in the wound when the bandage was changed. The mice were kept individually in separate cages. In order to avoid infections, baytril (Bayer) was introduced in the drinking water (50 mg/L of enrofloxacin). The bandages were changed once a week under ether anesthesia, and the wound edges were recorded on microscope slides. The areas shown were determined with a standard CCD camera using Scionlmage software. The wounds were checked visually for infections; liquid samples from obviously infected wounds were tested on blood agar plates. Mice with infected wounds were removed from further analyses.

peritoneal leukocytes = assay: Leukocyte inflow into the peritoneal cavity after intraperitoneal injection; assay type: in vivo, NMRI mice; settings: for PEC: 72 hours
Description: The model of inflow of granulocytes and macrophages into the peritoneal cavity of the mouse served as an example of the effectiveness of synthetic lipopeptides or liposomes into which such lipopeptides were incorporated. NMRI-outbred mice were used as experimental animals in order to exclude genetic peculiarities.
At time 0, the following preparations are injected in a sterile manner and in physiological sodium chloride solution into the peritoncal cavity of the experimental animals. Groups of 6 mice were killed after different times, the peritoneal cavity was washed with 1.2 ml of sterile sodium chloride solution and the number of leukocytes and the leukocyte composition was determined in this cell suspension.
Here, as above, groups of 5 NMRI mice were treated with different amounts of R-MALP-2=S-[2,3-Bispalmitoyloxy-(2R)-propyl]cysteinyl-GNNDESNISFKEK (SEQ ID NO:10) or S-MALP-2=S-[2,3-Bispalmitoyloxy-(2S)-propyl]cysteinyl-GNNDESNISFKEK (SEQ ID NO:8)applied intraperitoneally, and after 3 days the total number as well as the composition of the peritoneal leukocytes were determined.

skin of NMRI mice = assay: Intracutaneous application in the skin: leukocyte accumulation and new tissue formation; assay type: in vivo; settings: 2 μg intracutaneously
Description: The following experiment was carried out in order to show the effect of MALP-2 upon intracutaneous application.

wounds [2] = assay: Cell colonization and proliferation (nucleic acids) in treated wounds; assay type: in vivo, C57BLKS/J-m+/+Lepr^db mice (diabetic); settings: diabetic mice, after 10 days
Description: 2. Cell colonization and proliferation were measured in the skin section (0.8 cm diameter) of wounds which were treated with various amounts of MALP-2. For this experiment, (C57BLKS/J-m+/+Lepr^db mice (diabetic) were shaved on the back and hair was removed with Veet. The animals were anesthetized with metofane and their backs were disinfected with Braunol. Then circular skin segments (0.8 cm diameter) were taken from the back of each mouse. The wounds were covered with transparent hydrofilm (Hartmann, Germany); MALP-2 or other vehicles were injected into the wound bed through the film in a volume of 50 μL. After 10 days, the animals were killed; the thin layer of cells, which closes the wound, was sectioned ([…]). The punched samples were hydrolyzed and the nucleic acids determined as before. […] At this dose, 349±24 μg of nucleic acid per biopsy sample were found in the animals treated with MALP-2 while the value was 142±22 μg in the comparison samples (4 animals per group; p<0.0001).

skin sections = assay: Infiltration of cells and proliferation by nucleic acids in skin sections after intracutaneous injection; assay type: in vivo, C57BLKS/J mice
Description: 1. Determination of infiltration of cells and proliferation by measurement of nucleic acids in skin sections after intracutaneous (ic) injection of various MALP-2 doses. On day 1, the back of C57BLKS/J mice was shaved and hair was removed with Veet. On day 0, the animals were anesthetized with metofane; various doses of MALP-2, dissolved in 30 percent 2-propanol, were injected in volumes of up to 10 μL onto the back (ic). Corresponding volumes of the vehicle without MALP-2 were injected onto the back of the same mice at another location. The animals were killed 10 days later, and punched skin sections (diameter 0.8 cm) were taken from the MALP-2 injection sites and from the control injection sites. The skin biopsies were defatted by extraction with methanol, methanol/chloroform (1+1) and chloroform for 15 minutes and were hydrolyzed in 10 N Hcl overnight at 110° C. The samples were dried, taken up in water and clarified by filtration through a sterile filter (0.2 μm); the nucleic acids were determined by measuring the absorption at 260 nm. […] At this dose, the nucleic acid content increased at the MALP-2 injection site by 97±43% in comparison to the corresponding control biopsy (4 animals per group).

Substance: S-[2,3-Bispalmitoyloxy-(2S)-propyl]cysteinyl-GNNDESNISFKEK (C(X1)GNNDESNISFKEK) [S-MALP-2]
- animals surviving for 150 h or longer (abdominal sepsis): 4 out of 12
- wound healing (wound area, FIG. 7) (wounds [1]): significant acceleration of wound healing
- PEC (peritoneal leukocytes; 1 μg i.p., group mean φ of 5): 10.2 ± 2.2^a ×10^6
- PEC (peritoneal leukocytes; 1 μg i.p., individual animals A-E): 9.1 ×10^6 and 10.8 ×10^6 and 9.35 ×10^6 and 13.7 ×10^6 and 7.9 ×10^6
- PEC (peritoneal leukocytes; 5 μg i.p., group mean φ of 5): 14.5 ± 1.9^a,b ×10^6
- PEC (peritoneal leukocytes; 5 μg i.p., individual animals A-E): 14.4 ×10^6 and 15.2 ×10^6 and 17.3 ×10^6 and 13.1 ×10^6 and 12.5 ×10^6
- in vivo effect on peritoneal leukocytes, S-MALP-2 compared with R-MALP-2 (peritoneal leukocytes; i.p., after 3 days, groups of 5 NMRI mice): clearly more effective
- accumulation of leukocytes at the injection site (skin of NMRI mice; after 3 days): a clear accumulation of leukocytes is observed
- formation of new tissue and vessels (skin of NMRI mice; after 6 days): new tissue and vessels are formed

Substance: S-[2,3-Bispalmitoyloxy-(2R)-propyl]cysteinyl-GNNDESNISFKEK (C(Propyl(2R-PamO,3-PamO))GNNDESNISFKEK) [R-MALP-2, reference compound]
- PEC (peritoneal leukocytes; 10 μg i.p., group mean φ of 5): 8.64 ± 3 ×10^6
- PEC (peritoneal leukocytes; 10 μg i.p., individual animals A-E): 11.1 ×10^6 and 4.05 ×10^6 and 11.4 ×10^6 and 7.65 ×10^6 and 9 ×10^6

Substance: S-[2,3-bispalmitoyloxy-(2RS)-propyl]cysteinyl-GNNDESNISFKEK [MALP-2]
- nucleic acid per biopsy sample (wounds [2]; 5 μg per wound, 4 animals per group): 349 ± 24 µg
- optimal dose per wound (wounds [2]; injected into the wound bed): 5 µg
- increase of nucleic acid content at the injection site in comparison to the control biopsy (skin sections; 5 μg per injection site ic, 10 days, 4 animals per group): 97±43%
- optimal dose per injection site (skin sections; intracutaneous injection, skin biopsy 10 days later): 5 µg
- Peritoneal cells (peritoneal leukocytes; 9 μg i.p., after 72 hours, groups of 6 animals, mean): 11.2 ± 3.1^b ×10^6
